Test results published in patent US8980848B2, “Flavonoid dimers and their use” (The Hong Kong Polytechnic University, priority 2010, dated 2015).
Read-outs that look alike come from different tables or passages of the source.

Tests used:
[1] = tested on: Ld39 promastigotes (SSG-resistant); assay: In vitro anti-promastigote activity, Ld39; type: cell-based, Leishmania donovani; conditions: read-out: Anti-promastigotes activity (IC50, μM) Ld39
Experimental: (§1) Cell Lines and Cell Culture. Promastigotes of Leishmania donovani (wild type LdAG83, pentamidine-resistant LdAG83-PentR50, and SSG-resistant Ld39) and Leishmania major [MHOM/IL/67/JERICHO II (Lm50122), from ATCC] were used in this study.
(§2) In Vitro Anti-Promastigote Activity. The viability of promastigotes was determined by the Cell Titer 96° Aqueous Assay (Promega) that employs a tetrazolium compound (MTS, 2-(4,5-Dimethylthiazol-2-yl-)-5-[3-(carboxymethoxy)phenyl]-2-(4-sulfophenyl)-2H-tetrazolium) and electron coupling reagent, phenazine methosulfate (PMS).^7 Promastigotes were seeded into 96-well flat bottom microtiter plate at 1×10^5 cells per well in a final volume of 100 μL medium and incubated with a series concentration of synthetic flavonoid dimers or known antileishmanials. The parasites were incubated at 27° C. for 72 hrs. Fresh solution of 2 mg/mL MTS and 0.92 mg/mL PMS were prepared in a ratio of 20:1 (MTS:PMS). After 72 hrs incubation, 10 μL of MTS:PMS mixture was added into each well of microtiter plate. The plate was then incubated at 27° C. for 4 hrs for color development. After 4 hrs incubation, the OD values were determined at 490 nm using automatic microtiter plate reader (Bio-Rad).

Ld39 amastigotes = assay: In vitro anti-amastigote activity, Ld39 amastigotes in mouse PEM
Experimental: Peritoneal elicited macrophages (PEM) from mouse were obtained as previously described. A round cover slip (12 mm in diameter) was placed into each well of 24-well culture plate. Mouse macrophages were resuspended in supplemented DMEM media containing 10% heat inactivated fetal bovine serum (v/v), 100 U/mL penicillin and 100 μg/mL streptomycin and seeded into each well at a cell density of 1×10^5 cells per 500 μL. Macrophages were allowed to attach overnight and the non-adherent cells were removed by gentle washing twice with unsupplemented DMEM media. […] Non-internalized promastigotes were removed by washing with unsupplemented DMEM media for two times. Infected macrophages were further incubated in 500 μL supplemented DMEM media in the presence or absence of flavonoid dimers or known antileishmanials for 72 hrs at 37° C. After incubation, the cover slips were stained with Giemsa and the amastigotes inside each macrophage (100 macrophages per treatment) were counted under microscope. The percentage of macrophages infected and number of amastigotes per 100 macrophages was enumerated.
The % of infected macrophage and the number of amastigotes per 100 macrophages were counted by staining with Giemsa.

Raw264.7 cells = assay: Cytotoxicity, mouse macrophage Raw264.7; type: cell-based
Experimental: (§3) (a) Mouse Macrophage Raw 264.7 and Primary Mouse PEM Cells. The cytotoxicity assay of reference antileishmanial compounds and the compounds of this invention was performed against mouse macrophage cell line, Raw 264.7 and primary mouse PEM cells in order to calculate the therapeutic index (IC50 value for cytotoxicity of the compounds divided by IC50 value for antileishmanial activity of the compounds). The cells were grown in supplemented DMEM media in an atmosphere of 95% air with 5% CO2 at 37° C. In brief, Raw264.7 cells and PEM cells were seeded into 96-well flat bottom microtiter plate at 1×10^4cells and 2×10^4 cells per well in a final volume of 100 μL media, respectively. A graded dose of flavonoid dimers or antileishmanials was added into wells. The plate was incubated at 37° C. for 72 hrs at the atmosphere 5% CO2 in the air. The % of survivors was determined.

Lm50122 promastigotes = assay: In vitro anti-promastigote activity, Lm50122; type: cell-based, Leishmania major; conditions: read-out: Anti-promastigotes activity (IC50, μM) Lm50122
Experimental: as §1, §2

PEM cells = assay: Cytotoxicity, primary mouse peritoneal elicited macrophage (PEM); type: cell-based
Experimental: as §3

[2] = tested on: LdAG83 promastigotes (wild type); assay: In vitro anti-promastigote activity, LdAG83; type: cell-based, Leishmania donovani; conditions: read-out: Anti-promastigotes activity (IC50, μM) LdAG83
Experimental: as §1, §2

[3] = tested on: LdAG83PentR50 promastigotes (pentamidine-resistant); assay: microbe, parasite or virus in culture; type: cell-based, Leishmania donovani; conditions: read-out: Anti-promastigotes activity (IC50, μM) LdAG83PentR50
Experimental: as §1
No pentamidine or sodium stibogluconate was added to the L. donovani wild type (LdAG83) and L. major wild type (Lm50122). The mouse macrophage cell line, Raw264.7, was used for the determination of the relative toxicity of the compounds of the invention. […] They were maintained at 37° C. in a humidified atmosphere with 5% CO2. The cells were split constantly after a confluent monolayer has been formed. To split cells, the plate was washed briefly with PBS, treated with 0.05% trypsin-EDTA and harvested by centrifugation.
as §2

Pgp (LCC6MDR cells) = Pgp (LCC6MDR cells) (Homo sapiens, UniProt P08183); assay: Cell proliferation assay: Pgp-modulating activity, reversal of anticancer drug resistance in LCC6MDR cells; conditions: for EC50: EC50 of compounds for reversing anticancer drug resistance (nM), Paclitaxel; for EC50 / RF (Relative Fold), cpd at 0.5 μM: LCC6MDR; for Therapeutic index: IC50 of compounds for L929/EC50 of compounds for lowering paclitaxel drug resistance; for RF (Relative Fold), cpd at 0.5 μM: RF = (IC50 without modulator)/(IC50 with 0.5 μM modulator), paclitaxel
Pgp (LCC6MDR cells), sequence (P08183 whole entry): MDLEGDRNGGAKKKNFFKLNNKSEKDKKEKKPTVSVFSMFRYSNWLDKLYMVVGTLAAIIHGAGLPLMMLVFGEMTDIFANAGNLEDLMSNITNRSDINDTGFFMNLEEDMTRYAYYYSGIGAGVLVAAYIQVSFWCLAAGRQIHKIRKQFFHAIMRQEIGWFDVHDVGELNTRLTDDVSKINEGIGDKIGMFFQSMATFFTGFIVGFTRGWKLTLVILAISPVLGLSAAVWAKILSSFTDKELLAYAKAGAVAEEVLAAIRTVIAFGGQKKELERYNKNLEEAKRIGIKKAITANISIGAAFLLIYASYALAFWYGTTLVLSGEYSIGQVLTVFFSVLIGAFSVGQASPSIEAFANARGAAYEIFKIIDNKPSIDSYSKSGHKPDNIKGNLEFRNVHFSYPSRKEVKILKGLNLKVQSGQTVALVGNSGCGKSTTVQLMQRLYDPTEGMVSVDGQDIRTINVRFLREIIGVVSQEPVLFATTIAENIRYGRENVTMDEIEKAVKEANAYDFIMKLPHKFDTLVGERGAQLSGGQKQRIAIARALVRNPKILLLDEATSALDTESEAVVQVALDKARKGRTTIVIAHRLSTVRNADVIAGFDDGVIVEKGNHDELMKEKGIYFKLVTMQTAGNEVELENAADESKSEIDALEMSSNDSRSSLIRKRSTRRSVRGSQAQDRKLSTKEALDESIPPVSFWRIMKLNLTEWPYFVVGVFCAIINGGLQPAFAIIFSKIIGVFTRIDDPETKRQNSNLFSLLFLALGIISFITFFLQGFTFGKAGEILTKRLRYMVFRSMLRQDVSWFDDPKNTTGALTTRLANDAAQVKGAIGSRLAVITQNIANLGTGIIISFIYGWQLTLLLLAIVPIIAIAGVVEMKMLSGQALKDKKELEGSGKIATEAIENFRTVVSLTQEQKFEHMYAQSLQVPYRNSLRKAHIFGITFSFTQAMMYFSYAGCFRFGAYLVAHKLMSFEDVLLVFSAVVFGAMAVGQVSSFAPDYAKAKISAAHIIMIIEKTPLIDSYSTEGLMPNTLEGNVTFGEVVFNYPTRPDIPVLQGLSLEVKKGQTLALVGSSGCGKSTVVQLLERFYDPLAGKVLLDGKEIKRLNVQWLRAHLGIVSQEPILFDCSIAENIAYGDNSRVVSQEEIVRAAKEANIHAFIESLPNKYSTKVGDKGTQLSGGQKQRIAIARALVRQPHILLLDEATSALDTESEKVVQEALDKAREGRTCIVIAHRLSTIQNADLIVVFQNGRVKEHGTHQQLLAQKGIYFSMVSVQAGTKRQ
Experimental: Cell Proliferation Assay. 6,000 cells of LCC6 or LCC6MDR and anticancer drugs (paclitaxel, vinblastine, vincristine, doxorubicin and mitoxantrone) were mixed with or without modulators to a final volume of 200 μL in each well of 96-well plates. […] The plates were then incubated for 5 days at 37° C. […] IC50 values were calculated from the dose-response curves of MTS assays (Prism 4.0).

Leishmania promastigotes = assay: Anti-promastigote activity over the Leishmania strains; type: cell-based, Leishmania donovani, Leishmania major; conditions: for IC50: different Leishmania strains, read-out: Anti-promastigote IC50, range over strains
Experimental: as §1, §2

[4] = Cytotoxicity of flavonoid dimers, L929 mouse fibroblast; type: cell-based; conditions: mouse, L929 fibroblast cells, IC50 of compound alone, 72 hrs, mouse fibroblast
How it was run: (§4)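 LCC6, LCC6MDR and L929 cells seeded at 1×10^4 cells/well and exposed to graded doses of flavonoid dimers. Incubation 72 hrs at 37° C., 5% CO2. Read-out: % survivors.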

[5] = Tumor cell line cytotoxicity of flavonoid dimers, LCC6; type: cell-based, human; conditions: human, LCC6 cells, IC50 of compound alone
How it was run: as §4

[6] = Tumor cell line cytotoxicity of flavonoid dimers, LCC6MDR; type: cell-based, human; conditions: human, LCC6MDR cells, IC50 of compound alone
How it was run: as §4

[7] = Cytotoxicity over LCC6, LCC6MDR and L929 cell lines; type: cell-based, human, mouse; conditions: human, cancer lines LCC6, LCC6MDR and/or L929
Experimental: (b) Tumor Cell Line Cytotoxicity. The tumor cytotoxicity assays of flavonoid dimers were performed against LCC6, LCC6MDR and L929 cell lines. The cells were grown in supplemented DMEM media in an atmosphere of 95% air and 5% CO2 at 37° C. In brief, LCC6, LCC6MDR and L929 cells were seeded into 96-well flat bottom microtiter plate at 1×10^4 cells per well in a final volume of 100 μL media, respectively. A graded dose of flavonoid dimers was added into wells. The plate was incubated at 37° C. for 72 hrs at the atmosphere 5% CO2 in the air. The % of survivors was determined.

[8] = cytotoxicity, primary mouse macrophage, 72 hrs
[9] = mouse, LCC6MDR and L929 cell lines

| Compound | IC50 ([1]; Leishmania donovani, 72 h) | IC50 (Raw264.7 cells; Mus musculus, RAW264.7, 72 h) | EC50 (Pgp (LCC6MDR cells)) | Therapeutic index (Pgp (LCC6MDR cells)) | RF (Relative Fold), cpd at 0.5 μM (Pgp (LCC6MDR cells)) | IC50 (Leishmania promastigotes) | IC50 at 72 h [4] | IC50 at 72 h [5] | IC50 ([2]; Leishmania donovani, 72 h) | IC50 at 72 h [6] | IC50 at 72 h [7, 9] | other results |
| --- | --- | --- | --- | --- | --- | --- | --- | --- | --- | --- | --- | --- |
| C[C@@H]1[C@H](O)[C@@H](C)/C=C/C=C/C=C/C=C/C=C/C=C/C=C/[C@H](O[C@@H]2O[C@H](C)[C@@H](O)[C@H](N)[C@@H]2O)C[C@@H]2O[C@](O)(C[C@@H](O)C[C@@H](O)[C@H](O)CC[C@@H](O)C[C@@H](O)CC(=O)O[C@H]1C)C[C@H](O)[C@H]2C(=O)O [Amphotericin B, amphotericin B, reference compound] |  |  |  |  |  |  |  |  |  |  |  | IC50 ([1]; 3 days at 27° C., MTS): 0.095 ± 0.02 µM; IC50 (Ld39 amastigotes; read-out: IC50 against Ld39 amastigotes): 0.062 µM; IC50 (Raw264.7 cells; 72 hrs): 12 µM; IC50 (Lm50122 promastigotes; 3 days at 27° C., MTS): 0.34 ± 0.06 µM; IC50 (PEM cells; [8]): 7.4 µM; IC50 ([2]; 3 days at 27° C., MTS): 0.09 ± 0.02 µM; IC50 ([3]; 3 days at 27° C., MTS): 0.051 µM |
| O=c1cc(-c2ccc(OCCOCCNCCOCCOc3ccc(-c4cc(=O)c5ccccc5o4)cc3)cc2)oc2ccccc12 [Compound 12a, 1,13-Bis[4′-(4H-chromen-4-on-2-yl)phenyl]-1,4,10,13-tetraoxa-7-azamidecane] | 2.3 µM | < 4 µM | 305 ± 35 nM | 19.3 | (72.9) | < 4 µM | 5.9 ± 0.6 µM | 3.3 ± 1 µM | 3.3 µM | 2.4 ± 0.7 µM |  | IC50 (Raw264.7 cells; 72 hrs, listed as 12): 2.1 ± 0.9 µM; IC50 ([3]; Leishmania donovani, 72 h): 1.1 µM |
| COc1cccc2oc(-c3ccc(OCCOCCN(CCOCCOc4ccc(-c5cc(=O)c6c(OC)cccc6o5)cc4)C(=O)OC(C)(C)C)cc3)cc(=O)c12 [Compound 16d, 1,13-Bis[4′-((5-methoxy)-4H-chromen-4-on-2-yl)phenyl]-7-(tert-butyloxycarbonyl)-1,4,10,13-tetraoxa-7-azamidecane] |  |  |  |  | (14.9) |  |  | 4.6 ± 0.2 µM |  | 5.4 ± 0.5 µM |  | IC50 at 72 h [7]: < 8 µM |
| O=c1cc(-c2ccc(OCCOCCN(CCOCCOc3ccc(-c4cc(=O)c5ccccc5o4)cc3)Cc3ccc([N+](=O)[O-])cc3)cc2)oc2ccccc12 [Compound 19, 1,13-Bis[4′-(4H-chromen-4-on-2-yl)phenyl]-N-(4-nitrobenzyl)-1,4,10,13-tetraoxa-7-azamidecane] | > 100 µM | 70.3 ± 9.7 µM | 189 ± 1 nM | 465.6 |  |  | 88 ± 6.1 µM | 86.8 ± 1.8 µM | > 100 µM | > 90 µM | > 90 µM | IC50 (Lm50122 promastigotes; Leishmania major, 72 h): > 100 µM |
| O=c1cc(-c2ccc(OCCOCCN(CCOCCOc3ccc(-c4cc(=O)c5ccccc5o4)cc3)Cc3ccccn3)cc2)oc2ccccc12 [Compound 22, 1,13-Bis[4′-(4H-chromen-4-on-2-yl)phenyl]-N-(2-pyridylmethyl)-1,4,10,13-tetraoxa-7-azamidecane] | 2.4 ± 1 µM | 53 ± 12.7 µM |  |  | (15.8) | 1.8 to 2.4 µM | 10 µM | 10 ± 1.2 µM | 2.3 ± 0.8 µM | 29.7 ± 16.4 µM |  | IC50 (Lm50122 promastigotes; Leishmania major, 72 h): 1.8 ± 0.6 µM; Fold lower leishmanicidal activity than compound 21 (Leishmania promastigotes): about 10 fold |
| O=C1c2ccccc2C(=O)N1CCN(CCOCCOc1ccc(-c2cc(=O)c3ccccc3o2)cc1)CCOCCOc1ccc(-c2cc(=O)c3ccccc3o2)cc1 [Compound 23c, 1,13-Bis[4′-(4H-chromen-4-on-2-yl)phenyl]-7-[2-(1,3-dioxo-1,3-dihydro-2H-isoindol-2-yl)ethyl]-1,4,10,13-tetraoxa-7-azamidecane] |  |  |  |  | (9.6) |  | 17 ± 4.3 µM | 8.6 ± 3.4 µM |  | 4.9 ± 0.1 µM | 4.9 to 8.6 µM |  |
| O=c1cc(-c2ccc(OCCOCCN(CCOCCOc3ccc(-c4cc(=O)c5ccccc5o4)cc3)Cc3ccccc3F)cc2)oc2ccccc12 [Compound 36, 1,13-Bis[4′-(4H-chromen-4-on-2-yl)phenyl]-7-(2-fluorobenzyl)-1,4,10,13-tetraoxa-7-azamidecane] |  |  | 179 ± 44 nM | >558.7 |  |  | > 100 µM | > 100 µM |  | > 100 µM | > 100 µM | melting point: 82 to 84 °C |
| O=c1cc(-c2ccc(OCCOCCN(CCOCCOc3ccc(-c4cc(=O)c5ccccc5o4)cc3)Cc3cccc(F)c3)cc2)oc2ccccc12 [Compound 37, 1,13-Bis[4′-(4H-chromen-4-on-2-yl)phenyl]-7-(3-fluorobenzyl)-1,4,10,13-tetraoxa-7-azamidecane] |  |  | 258 ± 103 nM | >337.2 |  |  | > 87 µM | > 100 µM |  | > 100 µM | > 100 µM | melting point: 91 to 93 °C |
| O=c1cc(-c2ccc(OCCOCCN(CCOCCOc3ccc(-c4cc(=O)c5ccccc5o4)cc3)Cc3cc(F)c(F)c(F)c3)cc2)oc2ccccc12 [Compound 39, 1,13-Bis[4′-(4H-chromen-4-on-2-yl)phenyl]-7-(3,4,5-trifluorobenzyl)-1,4,10,13-tetraoxa-7-azamidecane] |  |  |  |  |  |  | > 100 µM | > 75 µM |  | > 100 µM | > 100 µM |  |
| CCCCCCCCCCCCCCCCOP(=O)([O-])OCC[N+](C)(C)C [Miltefosine, reference compound] |  | 20 µM |  |  |  | 4.3 to 17.3 µM |  |  |  |  |  | IC50 ([1]; Leishmania donovani, 72 h, 3 days at 27° C., MTS): 17.3 ± 2.1 µM; IC50 (Ld39 amastigotes; Leishmania donovani, in Mus musculus, 72 h, read-out: Ld39 (IC50, mM)): 16 ± 6.4 µM; IC50 (Lm50122 promastigotes; Leishmania major, 72 h, 3 days at 27° C., MTS): 9.8 ± 2.3 µM; IC50 (PEM cells; Mus musculus, Macrophage, Table 7, cytotoxicity): 75.3 ± 9.4 µM; IC50 (PEM cells; [8]): 75.3 ± 9.4 µM; IC50 ([3]; Leishmania donovani, 72 h): 9.3 ± 2.4 µM |
